Laboratory results as given in US10154974B1, “Use of abscisic acid for the prevention and treatment of malaria” (The Regents of the University of California, priority 2015, dated 2018).

Test system: P. falciparum
Assay: P. falciparum infection of A. stephensi fed a supplemented infected bloodmeal
Type: in vivo
Method: For P. falciparum infections A. stephensi were fed on a 1:1 ratio of P. falciparum-infected RBCs containing a treatment or diluent control and provided in a Hemotek Insect Feeding System (Discovery Workshops). ABA was eluted in 100% ethanol and stored at −20 C for up to 6 months. ABA stock was diluted with PBS and added into blood immediately before feeding for final concentrations of 10 nM and 100 nM. For L-NAME feeds mosquitoes were maintained on sugar cubes and water pads containing 1 mg/mL L-NAME for 72 hours before the feed and throughout the course of infection. Infection prevalence data were analyzed by Fisher's Exact Test. Oocyst intensities were analyzed by Mann-Whitney test.

Compound: COC(=O)[C@@H](N)CCCNC(=N)N[N+](=O)[O-] [L-NAME, Nω-Nitro-L-arginine methyl ester, reference compound]
- P. falciparum infection prevalence (1 mg/ml L-NAME added to 100 nM ABA-supplemented infected bloodmeal): rescued P. falciparum infection prevalence back to control levels
- P. falciparum infection (1 mg/ml L-NAME alone): no effect
